Test results taken from ChEMBL document CHEMBL4049432, “Structure-Guided Discovery of Potent and Selective Inhibitors of ERK1/2 from a Modestly Active and Promiscuous Chemical Start Point” (J Med Chem, 2017).

Experiment: Octanol-aqueous phosphate buffer distribution coefficient, log D of the compound at pH 7.4
Format: physicochemical
Details: not given

| SMILES | logD |
| --- | --- |
| COCCN1C(=O)c2cc(-c3nc(Nc4ccnn4C)ncc3C)[nH]c2C[C@H]1C | 2.14 |
| COCCN1CCc2[nH]c(-c3ccnc(NC4CCOCC4)n3)cc2C1=O | 1.6 |
| Cn1c(-c2ccnc(NC3CCOCC3)n2)cc2c1CCNC2=O | 1.3 |
| O=C1NCCc2[nH]c(-c3ccnc(NC4CCOCC4)n3)cc21 | 1.3 |
| COCCN1C(=O)c2cc(-c3nc(Nc4ccnn4C)ncc3C)[nH]c2C[C@@H]1C | 2.11 |
| COCCN1C(=O)c2cc(-c3ccnc(Nc4ccnn4C)n3)[nH]c2C[C@H]1C | 1.7 |
| O=C1c2cc(-c3ccnc(NC4CCOCC4)n3)[nH]c2CCN1Cc1ccccc1 | 3.2 |
| O=C1c2cc(-c3ccnc(NC4CCOCC4)n3)[nH]c2CCN1[C@H](CO)c1ccc(Cl)c(F)c1 | 3.5 |
| Cc1cccc(CN2CCn3cc(-c4nc(Nc5ccnn5C)ncc4C)cc3C2=O)n1 | 2.2 |
| CN1CCN(c2ccc(Nc3nccc(-c4cc5c([nH]4)CCNC5=O)n3)cc2)CC1 | 1.5 |
| Cc1cccc(CN2C(=O)c3cc(-c4ccnc(Nc5ccnn5C)n4)cn3CC2C)n1 (single isomer, unassigned; isomer 2) | 2.3 |

The next lines start with the values.

| logD | SMILES |
| --- | --- |
| 1.8 | COCCN1C(=O)c2cc(-c3ccnc(Nc4ccnn4C)n3)[nH]c2C[C@@H]1C |
| 2.4 | Cc1cccc(CN2CCc3[nH]c(-c4ccnc(NC5CCOCC5)n4)cc3C2=O)n1 |
| 1.6 | CN1CCc2[nH]c(-c3ccnc(NC4CCOCC4)n3)cc2C1=O |
| 0.75 | O=C1NCCn2cc(-c3ccnc(NC4CCOCC4)n3)cc21 |
| 1.4 | COCCN1CCc2[nH]c(-c3ccnc(Nc4ccnn4C)n3)cc2C1=O |
| 2.6 | O=C1c2cc(-c3ccnc(NC4CCOCC4)n3)[nH]c2CCN1[C@H](CO)c1ccccc1 |
| 1.7 | COCCN1CCc2c(cc(-c3ccnc(NC4CCOCC4)n3)n2C)C1=O |
| 1.7 | COCCN1C(=O)c2cc(-c3nc(Nc4ccnn4C)ncc3C)cn2C[C@H]1C |
| 1.3 | COCCN1CCn2cc(-c3nc(Nc4ccnn4C)ncc3C)cc2C1=O |
| 3.6 | O=C1c2cc(-c3ccnc(NC4CCOCC4)n3)[nH]c2CCN1[C@H](CO)c1ccc(F)c(Cl)c1 |
| 1.6 | COCCN1C(=O)c2cc(-c3nc(Nc4ccnn4C)ncc3C)cn2C[C@@H]1C |
| 3.3 | Cn1c(-c2ccnc(NC3CCOCC3)n2)cc2c1CCN(Cc1ccccc1)C2=O |

Experiment: Volume of distribution at steady state in rat plasma
Format: ADME
Details: read-out: Vdss

| Vd | SMILES |
| --- | --- |
| 1.3 L/kg | Cc1cccc(CN2C(=O)c3cc(-c4nc(Nc5ccnn5C)ncc4C)cn3C[C@H]2C)n1 |

Experiment: Oral bioavailability in rat
Format: ADME, organism-based
Details: in vivo

| bioavailability | SMILES |
| --- | --- |
| 31% | Cc1cccc(CN2C(=O)c3cc(-c4nc(Nc5ccnn5C)ncc4C)cn3C[C@H]2C)n1 |

Experiment: Volume of distribution at steady state in dog plasma
Format: ADME, Canis lupus familiaris
Details: read-out: Vdss

| Vd | SMILES |
| --- | --- |
| 0.9 L/kg | Cc1cccc(CN2C(=O)c3cc(-c4nc(Nc5ccnn5C)ncc4C)cn3C[C@H]2C)n1 |

Experiment: Oral bioavailability in dog
Format: ADME, organism-based, Canis lupus familiaris
Details: in vivo

| bioavailability | SMILES |
| --- | --- |
| 87% | Cc1cccc(CN2C(=O)c3cc(-c4nc(Nc5ccnn5C)ncc4C)cn3C[C@H]2C)n1 |
